A word on the IC50: it is the concentration that gives 50% inhibition. A higher IC50 goes with lower potency.

This experiment in a line: Inhibition of SARS-CoV-1 RdRp-mediated viral replication.

As to `CN(C)CCCSc1ccccc1NC(=O)/C=C/c1ccccc1` [CINANSERIN], the IC50 was 34 µM.
